Tests used:
[1] = Body weight in ovariectomized osteoporosis rat model; format: in vivo, Sprague-Dawley (SD) female rats; conditions: rat, in vivo
Procedure: (§1) Inducing osteoporosis animal models and experimental methods: • 1. 6-month old Sprague-Dawley (SD) female rats were purchased; • 2. These rats were divided into 7 groups, of which Group 1 was given pseudo-surgery, Group 2-7 underwent bilateral ovariectomies; • 3. On the 6th day after surgery, 1 mL/kg of vehicle alone was given orally to Group 1, Group 2 daily, Zoledronic Acid and Prolia were administered weekly by injections to Group 3, Group 4, respectively; 1, 3, 10 mg/kg of the compound of formula I was given orally every 3 days to Groups 5-7, respectively; • 4. Body weight and bone density were measured weekly, blood was drawn until the 118th day; • 5. Rats were then sacrificed to obtain kidneys, livers and rat tibia; • 6. Data were consolidated and processed.

ovariectomized rats = test: Bone density in ovariectomized osteoporosis rat model; format: in vivo, Sprague-Dawley (SD) female rats
Procedure: as §1

c-Fos = test: Western blot of MAPK downstream protein c-Fos; format: cell-based, mouse; conditions: 10 μg/ml co-treated with 100 ng/ml RANKL, 48 hours
Procedure: (§2) The effect of the compound of formula I on the protein expression of osteoclast MAPKs pathways induced by receptor activator of nuclear factor κB ligand was studied, experiments were performed by using the Western blot method; RAW 264.7 cells were rinsed in ice-cold PBS, cell lysis buffer was added, the components of the buffer solution included: 10 mM 4-(2-hydroxyethyl)-1-piperazineethanesulfonic acid (HEPES), 1.5 mM MgCl2, 0.5 mM dithiothreitol (DTT), 0.5 μg/ml leupeptin and 6.4% Nonidet P-40, reacted on ice for 15 minutes. The cells were scraped off with a spatula, collected into a 1.5 ml centrifuge tube, the cells were thoroughly broken by using a shaker; centrifuged at 12,000 rpm, 4° C. for 10 minutes; supernatant was added into a new 1.5 ml centrifuge tube; boiled with IX sodiumdodecyl sulfate (SDS) sample buffer, followed by electrophoresis using 10 to 12% SDS-PAGE. […] The transfer membrane was rinsed again and the membrane loaded with chemical luminescence reagent ECL was allowed to react with a photosensitive sheet in a darkroom for a suitable period of time, the photosensitive sheet then reacted with the developer. After the photosensitive sheet was exposed to light a band-shaped antibody-binding proteins was observed, quantified by the density of the bands. […]

[2] = Liver and kidney toxicity in ovariectomized osteoporosis rat model; format: in vivo, Sprague-Dawley (SD) female rats; conditions: ovariectomized rats, compared to commercially available drugs
Procedure: Inducing osteoporosis animal models and experimental methods: • 1. 6-month old Sprague-Dawley (SD) female rats were purchased; • 2. These rats were divided into 7 groups, of which Group 1 was given pseudo-surgery, Group 2-7 underwent bilateral ovariectomies; • 3. […] Body weight and bone density were measured weekly, blood was drawn until the 118th day; • 5. Rats were then sacrificed to obtain kidneys, livers and rat tibia; • 6. Data were consolidated and processed. [table]

[3] = system: osteolytic activity of osteoclast cells induced by receptor activator of nuclear factor κB ligand; test: Osteolytic activity of osteoclasts on corning osteo assay surface plate; format: cell-based, mouse; conditions: 10 μg/ml co-treated with 100 ng/ml RANKL, 12 days
Source text: Effect of the compound of formula I on receptor activator of nuclear factor κB ligand-induced osteocytic activity of the osteoclast cells Osteoclast is a multinuclear cell, which differentiates because of the stimulation of macrophage colony stimulating factor and receptor activator of nuclear factor κB ligand, after differentiation the folds on the edge of the osteoclast form a resorption groove on the cell membrane and the bone surface is […]. In this space, the […] secretes some enzymes and acids. These acids activate the enzymes to initiate osteolysis of bone mineral matrix. […]
In order to confirm the effect of the compound of formula I on the bone resorption capability of differentiated osteoclasts, RAW 264.7 cells were cultured in a 24-well plate (osteo assay plate, 24 well; corning incorporated) containing artificial bone material, the cell number of each well was 2×10^3 cell/ml. […] The number of grooves per each well was counted under a microscope 40× and further photographed for observation.

hepatitis B virus (HBV) = conditions: human hepatocellular carcinoma cells; cited from earlier work
NF-κB p65 = test: Western blot of NF-κB p65; format: cell-based, mouse; conditions: 10 μg/ml co-treated with 100 ng/ml RANKL, 48 hours
Procedure: as §2

Structure (SMILES): CNC(=O)N[C@]1(C)CCC[C@@]2(C)C3CC[C@@]4(C)C[C@]3(CCC21)CC4=O (single isomer, unassigned; ent-16) [compound of formula I, ent-16-oxobeyeran-19-N-methylureido]
- effect on body weight [1]: different from commercially available drugs
- effect on reduced tibial bone density caused by ovarian removal (ovariectomized rats; ovariectomized rats, 1, 3, 10 mg/kg PO once every 3 days, 19 weeks after ovarian removal): improve the reduced tibial bone density
- increase of tibial bone density (ovariectomized rats; ovariectomized rats, PO once every 3 days, as compared to the experimental group): 10%
- c-Fos protein expression (c-Fos): significantly reduced
- cytotoxicity in kidney (blood urea nitrogen, plasma creatinine) [2]: less cytotoxicity in kidney than Zoledronic acid
- cytotoxicity in liver (alanine aminotransferase) [2]: less cytotoxicity in liver than Proliaor
- eroded area of the artificial bone material [3]: substantially reduced
- osteolytic activity of osteoclast cells [3]: inhibited
- secretion of hepatitis B virus antigen (HBeAg) (hepatitis B virus (HBV)): effectively suppress
- secretion of hepatitis B virus surface antigen (HBsAg) (hepatitis B virus (HBV)): effectively suppress
- NF-κB p65 protein expression (NF-κB p65): protein expression was reduced
